Results taken from US20230192677A1, “CYP11A1 INHIBITORS” (ORION CORPORATION, priority 2020, published 2023).

Legend:
CYP11A1 = target: T1, CYP11A1 (Homo sapiens, UniProt P05108); assay: CYP11A1 inhibition, isocaproic acid release assay (IARA) in H295R cells; type: cell-based; settings: human H295R adrenocortical carcinoma cell line, three days, 3 nM [24,25-3H]-labelled cholesterol; read-out: IC50 on CYP11A1 inhibition (Group)
T1 construct: human H295R adrenocortical carcinoma cell line was used as source of enzyme; endogenous in cells; host or cells: H295R human adrenocortical carcinoma cells
T1 sequence (P05108 40-521): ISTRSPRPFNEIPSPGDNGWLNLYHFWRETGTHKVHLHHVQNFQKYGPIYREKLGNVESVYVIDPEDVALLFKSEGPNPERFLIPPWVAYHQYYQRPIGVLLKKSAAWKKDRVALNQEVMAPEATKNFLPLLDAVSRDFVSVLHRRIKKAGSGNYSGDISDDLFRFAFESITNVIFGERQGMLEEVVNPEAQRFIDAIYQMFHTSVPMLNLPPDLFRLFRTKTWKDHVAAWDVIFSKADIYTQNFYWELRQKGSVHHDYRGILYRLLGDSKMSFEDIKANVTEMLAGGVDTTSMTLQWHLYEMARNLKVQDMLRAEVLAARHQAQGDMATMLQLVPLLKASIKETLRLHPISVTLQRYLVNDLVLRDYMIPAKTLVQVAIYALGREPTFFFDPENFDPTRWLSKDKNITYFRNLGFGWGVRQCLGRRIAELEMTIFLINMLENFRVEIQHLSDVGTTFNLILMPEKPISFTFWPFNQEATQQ
Protocol: The ability of the test compounds to inhibit conversion of cholesterol to pregnenolone and isocaproic acid was measured by modification of isocaproic acid release assay (IARA) described by Ruangwises et al. (Biology of Reproduction 1991; 45(1):143-50) except that human H295R adrenocortical carcinoma cell line was used as source of enzyme and extraction was done with dextran-coated charcoal suspension (Isomaa, V. et al., Endocrinology 1982; 111(3):833-843). […] To determine the half maximal inhibitory concentration (IC50) of the test compounds on CYP11A1 inhibition, the cells were treated for three days with increasing concentrations of the test compounds in the presence of 3 nM [24,25-3H]-labelled cholesterol (American Radiolabelled Chemicals). The final DMSO concentration was 1%. Cell culture medium was extracted with dextran-coated charcoal suspension and the radiolabelled isocaproic acid was determined by mixing 100 μl of supernatant fraction in 200 μl of scintillation fluid (OptiPhase SuperMix, Perkin Elmer). Radioactivity was measured using a Microbeta scintillation counter (1450 MicroBeta Trilux, Wallac). All the test compounds were studied at 10 concentrations in duplicates.

[1] = target: recombinant human cytochrome P450 (CYP) CYP3A4 enzyme (Homo sapiens, UniProt P08684); assay: Formation of reactive metabolites, trapping with GSH, KCN and SCA; settings: test compound 10 μM, recombinant human CYP3A4, NADPH, 1 hour, pH 7.4
recombinant human cytochrome P450 (CYP) CYP3A4 enzyme, sequence (P08684 whole entry): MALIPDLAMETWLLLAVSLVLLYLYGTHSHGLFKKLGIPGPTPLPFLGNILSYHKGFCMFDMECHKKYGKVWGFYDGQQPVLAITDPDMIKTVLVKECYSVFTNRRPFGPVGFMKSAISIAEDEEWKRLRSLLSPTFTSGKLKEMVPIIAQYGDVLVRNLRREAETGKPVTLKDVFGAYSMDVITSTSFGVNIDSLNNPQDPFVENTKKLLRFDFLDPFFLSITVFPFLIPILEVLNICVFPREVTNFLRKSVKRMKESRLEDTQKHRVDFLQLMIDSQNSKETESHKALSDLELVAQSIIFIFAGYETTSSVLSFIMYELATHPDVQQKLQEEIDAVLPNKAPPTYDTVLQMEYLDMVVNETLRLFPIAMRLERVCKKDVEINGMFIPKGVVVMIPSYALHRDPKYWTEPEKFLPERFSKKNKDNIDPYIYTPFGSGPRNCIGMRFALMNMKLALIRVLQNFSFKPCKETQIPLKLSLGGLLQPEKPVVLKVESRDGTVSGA

Structure (SMILES) | IC50 (CYP11A1) | other results
CS(=O)(=O)c1cc(CN2Cc3ccc(-c4nnco4)cc3C2)ccc1OCC1CCN(S(C)(=O)=O)CC1 [Compound 10, 2-(2-(3-(Methylsulfonyl)-4-((1-(methylsulfonyl)piperidin-4-yl)methoxy)benzyl)-isoindolin-5-yl)-1,3,4-oxadiazole] | 101 to 200 nM | Number of CN trapped metabolites [1]: 1 (trace); Number of GSH trapped metabolites [1]: 0; Number of SCA trapped metabolites [1]: 2 (trace)
CS(=O)(=O)N1CCC(COc2coc(CN3Cc4ccc(-n5cccn5)cc4C3)cc2=O)CC1 [Compound 7, 2-((5-(1H-Pyrazol-1-yl)isoindolin-2-yl)methyl)-5-((1-(methylsulfonyl)piperidin-4-yl)methoxy)-4H-pyran-4-one] | 101 to 200 nM | Number of CN trapped metabolites [1]: 0; Number of GSH trapped metabolites [1]: 0; Number of SCA trapped metabolites [1]: 1 (trace)
CC(c1cc(=O)c(OCC2CCN(S(C)(=O)=O)CC2)co1)N1Cc2ccc(-c3ncco3)cc2C1 (stereo not shown) [Compound 17b, 5-((1-(Methylsulfonyl)piperidin-4-yl)methoxy)-2-(1-(5-(oxazol-2-yl)isoindolin-2-yl)ethyl)-4H-pyran-4-one] | – | Number of CN trapped metabolites [1]: 0; Number of GSH trapped metabolites [1]: 0; Number of SCA trapped metabolites [1]: 1 (trace)
CN(C)C(=O)[C@H]1CC[C@H](COc2ccc(CN3Cc4ccccc4C3)cc2S(C)(=O)=O)CC1 [Compound 79, (1r,4r)-4-((4-(Isoindolin-2-ylmethyl)-2-(methylsulfonyl)phenoxy)methyl)-N,N-dimethylcyclohexane-1-carboxamide] | < 100 nM | –
CN(C)C(=O)C1CCC(COc2ccc(CN3Cc4ccccc4C3)cc2S(C)(=O)=O)CC1 (stereo not shown) [Compound 74, 4-((4-(Isoindolin-2-ylmethyl)-2-(methylsulfonyl)phenoxy)methyl)-N,N-dimethylcyclohexane-1-carboxamide] | < 100 nM | –
CS(=O)(=O)c1cc(CN2Cc3ccccc3C2)ccc1OCc1ccc(C(=O)N=S(C)(C)=O)cc1 [Compound 78, N-(Dimethyl(oxo)-λ^6-sulfaneylidene)-4-((4-(isoindolin-2-ylmethyl)-2-(methyl-sulfonyl)phenoxy)methyl)benzamide] | < 100 nM | –
CS(=O)(=O)c1cc(CN2Cc3ccccc3C2)ccc1OCC1CCC(C(=O)N2CCC2)CC1 (stereo not shown) [Compound 80, Azetidin-1-yl(4-((4-(isoindolin-2-ylmethyl)-2-(methylsulfonyl)phenoxy)-methyl)cyclohexyl)methanone] | 101 to 200 nM | –
CC(C)C(=O)N1CCC(COc2ccc(CN3Cc4ccccc4C3)cc2S(C)(=O)=O)CC1 [Compound 73, 1-(4-((4-(Isoindolin-2-ylmethyl)-2-(methylsulfonyl)phenoxy)methyl)piperidin-1-yl)-2-methylpropan-1-one] | < 100 nM | –
CC(=O)N1CCC(COc2ccc(CN3Cc4ccccc4C3)cc2S(C)(=O)=O)CC1 [Compound 87, 1-(4-((4-(Isoindolin-2-ylmethyl)-2-(methylsulfonyl)phenoxy)methyl)piperidin-1-yl)ethan-1-one] | 201 to 2000 nM | –
CN(C)C(=O)c1ccc(COc2ccc(CN3Cc4ccccc4C3)cc2S(C)(=O)=O)cc1 [Compound 68, 4-((4-(Isoindolin-2-ylmethyl)-2-(methylsulfonyl)phenoxy)methyl)-N,N-dimethylbenzamide] | < 100 nM | –
CS(=O)(=O)c1cc(CN2Cc3ccccc3C2)ccc1OCc1ccc([S@@](C)(=N)=O)cc1 [Compound 96, (S)-Imino(4-((4-(isoindolin-2-ylmethyl)-2-(methylsulfonyl)phenoxy)methyl)-phenyl)(methyl)-λ^6-sulfanone] | < 100 nM | –
CO/N=C(\C)c1ccc2c(c1)CN(Cc1cc(=O)c(OCC3CCN(S(C)(=O)=O)CC3)co1)C2 [Compound 91, (E)-2-((5-(1-(Methoxyimino)ethyl)isoindolin-2-yl)methyl)-5-((1-(methylsulfonyl)piperidin-4-yl)methoxy)-4H-pyran-4-one] | 101 to 200 nM | –
CCC(=O)N1CCC(COc2ccc(CN3Cc4ccccc4C3)cc2S(C)(=O)=O)CC1 [Compound 70] | 101 to 200 nM | –
CS(=O)(=O)c1cc(CN2Cc3ccccc3C2)ccc1OCc1ccc([S@](C)(=N)=O)cc1 [Compound 95, (R)-Imino(4-((4-(isoindolin-2-ylmethyl)-2-(methylsulfonyl)phenoxy)methyl)-phenyl)(methyl)-λ^6-sulfanone] | 101 to 200 nM | –
CS(=N)(=O)c1ccc(COc2ccc(CN3Cc4ccc(C(F)(F)F)cc4C3)cc2S(C)(=O)=O)cc1 (stereo not shown) [Compound 85, Imino(methyl)(4-((2-(methylsulfonyl)-4-((5-(trifluoromethyl)isoindolin-2-yl)methyl)phenoxy)methyl)phenyl)-λ^6-sulfanone] | < 100 nM | –
CS(=O)(=O)N1CCC(COc2coc(CN3Cc4ccc(-c5ccno5)cc4C3)cc2=O)CC1 [Compound 4, 2-((5-(Isoxazol-5-yl)isoindolin-2-yl)methyl)-5-((1-(methylsulfonyl)piperidin-4-yl)methoxy)-4H-pyran-4-one] | 101 to 200 nM | –
CCS(=N)(=O)c1ccc(COc2ccc(CN3Cc4ccccc4C3)cc2S(C)(=O)=O)cc1 (stereo not shown) [Compound 71, Ethyl(imino)(4-((4-(isoindolin-2-ylmethyl)-2-(methylsulfonyl)phenoxy)methyl)-phenyl)-λ^6-sulfanone] | < 100 nM | –
C[C@H](c1cc(=O)c(OCC2CCN(S(C)(=O)=O)CC2)co1)N1Cc2ccccc2[C@H]2C[C@H]21 (relative stereo) [Compound 24b, 5-((1-(Methylsulfonyl)piperidin-4-yl)methoxy)-2-((R*)-1-((1aR*,7bR*)-1,1a,3,7b-tetrahydro-2H-cyclopropa[c]isoquinolin-2-yl)ethyl)-4H-pyran-4-one] | – | Number of CN trapped metabolites [1]: 2 (trace); Number of GSH trapped metabolites [1]: 0; Number of SCA trapped metabolites [1]: 0

Continued, in another order:

IC50 (CYP11A1) | Structure (SMILES) | other results
< 100 nM | CS(=O)(=O)c1cc(CN2Cc3ccccc3C2)ccc1OCc1ccc(S(=O)(=O)N2CC(O)C2)cc1 [Compound 77, 1-((4-((4-(Isoindolin-2-ylmethyl)-2-(methylsulfonyl)phenoxy)methyl)phenyl)-sulfonyl)azetidin-3-ol] | –
101 to 200 nM | CS(=O)(=O)N1CCC(COc2ccc(CN3Cc4ccccc4C3)cc2S(=O)(=O)C2CC2)CC1 [Compound 26, 2-(3-(Cyclopropylsulfonyl)-4-((1-(methylsulfonyl)piperidin-4-yl)methoxy)-benzyl)isoindoline] | –
< 100 nM | CS(=O)(=O)c1cc(CN2Cc3ccccc3C2)ccc1OCC1CCN(S(=O)(=O)C2COC2)CC1 [Compound 75, 2-(3-(Methylsulfonyl)-4-((1-(oxetan-3-ylsulfonyl)piperidin-4-yl)methoxy)-benzyl)isoindoline] | –
201 to 2000 nM | CS(=O)(=O)N1CCC(COc2coc(CN3Cc4ccccc4C4(CC4)C3)cc2=O)CC1 [Compound 103, 2-((1′H-Spiro[cyclopropane-1,4′-isoquinolin]-2′(3′H)-yl)methyl)-5-((1-(methyl-sulfonyl)piperidin-4-yl)methoxy)-4H-pyran-4-one] | –
201 to 2000 nM | CS(=O)(=O)c1cc(CN2Cc3ccccc3C2)ccc1OCC1CCOCC1 [Compound 83, 2-(3-(Methylsulfonyl)-4-((tetrahydro-2H-pyran-4-yl)methoxy)benzyl)isoindoline] | –
101 to 200 nM | CS(=O)(=O)c1ccc(COc2ccc(CN3Cc4ccccc4C3)cc2S(C)(=O)=O)cc1F [Compound 81, 2-(4-((3-Fluoro-4-(methylsulfonyl)benzyl)oxy)-3-(methylsulfonyl)benzyl)-isoindoline] | –
< 100 nM | CCS(=O)(=O)c1ccc(COc2ccc(CN3Cc4ccccc4C3)cc2S(C)(=O)=O)cc1 [Compound 76, 2-(4-((4-(Ethylsulfonyl)benzyl)oxy)-3-(methylsulfonyl)benzyl)isoindoline] | –
201 to 2000 nM | O=c1cc(CN2CCc3ccccc3C2)occ1OCC1CC2(C1)CN(c1ncccn1)C2 [Compound 50, 2-((3,4-Dihydroisoquinolin-2(1H)-yl)methyl)-5-((2-(pyrimidin-2-yl)-2-azaspiro-[3.3]heptan-6-yl)methoxy)-4H-pyran-4-one] | –
< 100 nM | CC[S@@](=N)(=O)c1ccc(COc2ccc(CN3Cc4ccccc4C3)cc2S(C)(=O)=O)cc1 [Compound 98, (R)-Ethyl(imino)(4-((4-(isoindolin-2-ylmethyl)-2-(methylsulfonyl)phenoxy)-methyl)phenyl)-λ^6-sulfanone] | –
